ChEMBL document CHEMBL4014283, “Structural insights of SmKDAC8 inhibitors: Targeting Schistosoma epigenetics through a combined structure-based 3D QSAR, in vitro and synthesis strategy” (Bioorg Med Chem, 2017)
Active and inactive are the calls of the source. The calls are words filed in the database; no cut-off is given here.

Experiments:
Histone deacetylase 8 [1] = molecular target: T1, Histone deacetylase 8 (Homo sapiens, UniProt Q9BY41); assay: Inhibition of full length human C-terminal His-tagged KDAC8 expressed in baculovirus expression system at 30 uM using (FAM)-labeled peptide as substrate after 60 mins by microfluidic assay relative to control; conditions: 1 h, 30 µM
T1 sequence (Q9BY41 whole entry): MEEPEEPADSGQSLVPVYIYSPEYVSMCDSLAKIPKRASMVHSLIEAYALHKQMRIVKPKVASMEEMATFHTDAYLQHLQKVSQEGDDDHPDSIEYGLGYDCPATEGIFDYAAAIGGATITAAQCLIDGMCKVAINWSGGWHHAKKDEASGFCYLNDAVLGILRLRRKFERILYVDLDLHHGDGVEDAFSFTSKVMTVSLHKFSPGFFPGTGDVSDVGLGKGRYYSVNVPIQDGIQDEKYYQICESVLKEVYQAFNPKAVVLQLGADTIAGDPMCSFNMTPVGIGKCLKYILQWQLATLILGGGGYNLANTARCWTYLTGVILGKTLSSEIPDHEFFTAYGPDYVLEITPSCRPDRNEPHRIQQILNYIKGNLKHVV

[2] = molecular target: KDAC3/NCOR2 (histone deacetylase 3/nuclear receptor corepressor 2 complex) (Homo sapiens, UniProt O15379); assay: (§1) Inhibition of full length human C-terminal His-tagged KDAC3/N-terminal GST-tagged human NCOR2 (395 to 489 residues) expressed in baculovirus expression system at 30 uM using FITC-p53 acetylated peptide as substrate after 60 mins by microfluidic assay; conditions: probe FITC-p53 acetylated peptide
KDAC3/NCOR2 (histone deacetylase 3/nuclear receptor corepressor 2 complex), sequence (O15379 whole entry, the tested form may be a part): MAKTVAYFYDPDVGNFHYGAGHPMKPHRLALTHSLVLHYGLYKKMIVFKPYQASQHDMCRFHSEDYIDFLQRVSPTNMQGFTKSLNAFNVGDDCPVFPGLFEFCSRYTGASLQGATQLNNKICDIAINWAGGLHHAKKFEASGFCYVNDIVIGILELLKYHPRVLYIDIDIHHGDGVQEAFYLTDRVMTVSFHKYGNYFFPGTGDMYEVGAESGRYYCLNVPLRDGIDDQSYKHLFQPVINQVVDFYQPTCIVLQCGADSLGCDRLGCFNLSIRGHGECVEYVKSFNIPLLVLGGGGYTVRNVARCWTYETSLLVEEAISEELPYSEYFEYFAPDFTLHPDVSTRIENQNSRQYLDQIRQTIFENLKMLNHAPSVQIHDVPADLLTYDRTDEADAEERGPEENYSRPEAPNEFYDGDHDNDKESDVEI
KDAC3/NCOR2 (histone deacetylase 3/nuclear receptor corepressor 2 complex), sequence (Q9Y618 whole entry, further chain, the tested form may be a part): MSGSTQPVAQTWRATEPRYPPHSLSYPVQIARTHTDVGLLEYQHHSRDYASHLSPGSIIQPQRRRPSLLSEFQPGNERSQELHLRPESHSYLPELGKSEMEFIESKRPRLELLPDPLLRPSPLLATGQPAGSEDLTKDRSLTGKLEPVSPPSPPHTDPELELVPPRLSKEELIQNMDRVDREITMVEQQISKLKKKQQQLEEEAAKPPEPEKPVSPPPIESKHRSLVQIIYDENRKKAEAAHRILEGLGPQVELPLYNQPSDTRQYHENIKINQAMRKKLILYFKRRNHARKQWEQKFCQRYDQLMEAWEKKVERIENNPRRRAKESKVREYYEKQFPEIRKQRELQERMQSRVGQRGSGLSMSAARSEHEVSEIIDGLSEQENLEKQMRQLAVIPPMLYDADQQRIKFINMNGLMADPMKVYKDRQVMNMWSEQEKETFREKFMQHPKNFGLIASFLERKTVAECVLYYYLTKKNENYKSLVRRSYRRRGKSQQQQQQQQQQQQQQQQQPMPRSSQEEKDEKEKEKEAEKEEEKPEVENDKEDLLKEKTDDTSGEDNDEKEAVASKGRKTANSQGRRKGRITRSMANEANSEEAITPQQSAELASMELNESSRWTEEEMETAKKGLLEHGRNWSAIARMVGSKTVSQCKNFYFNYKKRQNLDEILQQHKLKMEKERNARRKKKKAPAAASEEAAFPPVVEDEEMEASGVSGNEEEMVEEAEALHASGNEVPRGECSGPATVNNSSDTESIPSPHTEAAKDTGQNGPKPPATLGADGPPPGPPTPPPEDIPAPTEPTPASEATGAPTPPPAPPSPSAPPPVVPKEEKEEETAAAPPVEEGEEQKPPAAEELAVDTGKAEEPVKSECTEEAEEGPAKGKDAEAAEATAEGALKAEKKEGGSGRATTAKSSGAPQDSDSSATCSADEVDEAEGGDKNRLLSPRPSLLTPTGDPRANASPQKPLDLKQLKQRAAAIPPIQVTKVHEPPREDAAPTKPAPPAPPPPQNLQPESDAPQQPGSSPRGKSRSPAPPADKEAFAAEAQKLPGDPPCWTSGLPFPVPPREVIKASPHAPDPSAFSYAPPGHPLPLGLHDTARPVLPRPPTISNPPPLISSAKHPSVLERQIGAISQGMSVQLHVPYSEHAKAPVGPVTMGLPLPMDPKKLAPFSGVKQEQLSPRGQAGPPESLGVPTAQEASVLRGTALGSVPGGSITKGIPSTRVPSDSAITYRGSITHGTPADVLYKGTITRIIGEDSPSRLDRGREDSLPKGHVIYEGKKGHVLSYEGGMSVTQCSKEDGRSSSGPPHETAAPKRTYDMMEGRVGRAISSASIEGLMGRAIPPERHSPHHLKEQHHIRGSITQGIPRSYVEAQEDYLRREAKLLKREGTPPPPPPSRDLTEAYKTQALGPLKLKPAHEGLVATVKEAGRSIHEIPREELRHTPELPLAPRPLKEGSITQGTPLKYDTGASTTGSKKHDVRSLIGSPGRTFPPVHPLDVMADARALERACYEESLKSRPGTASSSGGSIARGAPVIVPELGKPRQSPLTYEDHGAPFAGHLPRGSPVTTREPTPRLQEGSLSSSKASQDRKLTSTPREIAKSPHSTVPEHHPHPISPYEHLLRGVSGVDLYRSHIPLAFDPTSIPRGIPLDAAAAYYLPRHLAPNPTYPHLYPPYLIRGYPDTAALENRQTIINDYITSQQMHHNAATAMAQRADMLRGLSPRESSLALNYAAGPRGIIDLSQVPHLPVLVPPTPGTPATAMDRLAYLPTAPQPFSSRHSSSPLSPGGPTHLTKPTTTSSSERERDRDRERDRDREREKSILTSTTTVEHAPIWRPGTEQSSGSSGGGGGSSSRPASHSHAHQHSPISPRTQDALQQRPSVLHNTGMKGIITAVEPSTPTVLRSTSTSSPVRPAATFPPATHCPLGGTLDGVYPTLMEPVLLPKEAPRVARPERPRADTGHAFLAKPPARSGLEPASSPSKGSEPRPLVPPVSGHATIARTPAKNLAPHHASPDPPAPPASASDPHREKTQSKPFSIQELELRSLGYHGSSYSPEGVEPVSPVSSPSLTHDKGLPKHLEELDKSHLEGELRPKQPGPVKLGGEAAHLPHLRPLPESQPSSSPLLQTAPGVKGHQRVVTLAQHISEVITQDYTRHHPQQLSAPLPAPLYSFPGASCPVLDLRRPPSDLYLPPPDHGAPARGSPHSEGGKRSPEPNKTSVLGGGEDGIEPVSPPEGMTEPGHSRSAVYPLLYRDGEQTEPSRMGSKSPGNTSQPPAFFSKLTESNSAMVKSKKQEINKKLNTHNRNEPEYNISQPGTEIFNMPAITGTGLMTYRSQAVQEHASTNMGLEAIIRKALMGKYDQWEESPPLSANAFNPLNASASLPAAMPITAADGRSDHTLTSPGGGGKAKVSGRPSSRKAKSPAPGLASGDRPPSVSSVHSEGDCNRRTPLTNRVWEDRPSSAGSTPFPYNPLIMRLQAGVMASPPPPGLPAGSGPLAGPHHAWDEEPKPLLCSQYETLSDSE

[3] = molecular target: T2, Protein deacetylase HDAC6 (Homo sapiens, UniProt Q9UBN7); assay: Inhibition of human KDAC6 expressed in baculovirus expression system at 30 uM using FITC-Histone 4 acetylated peptide as substrate after 60 mins by microfluidic assay; conditions: 1 h, 30 µM
T2 sequence (Q9UBN7 whole entry): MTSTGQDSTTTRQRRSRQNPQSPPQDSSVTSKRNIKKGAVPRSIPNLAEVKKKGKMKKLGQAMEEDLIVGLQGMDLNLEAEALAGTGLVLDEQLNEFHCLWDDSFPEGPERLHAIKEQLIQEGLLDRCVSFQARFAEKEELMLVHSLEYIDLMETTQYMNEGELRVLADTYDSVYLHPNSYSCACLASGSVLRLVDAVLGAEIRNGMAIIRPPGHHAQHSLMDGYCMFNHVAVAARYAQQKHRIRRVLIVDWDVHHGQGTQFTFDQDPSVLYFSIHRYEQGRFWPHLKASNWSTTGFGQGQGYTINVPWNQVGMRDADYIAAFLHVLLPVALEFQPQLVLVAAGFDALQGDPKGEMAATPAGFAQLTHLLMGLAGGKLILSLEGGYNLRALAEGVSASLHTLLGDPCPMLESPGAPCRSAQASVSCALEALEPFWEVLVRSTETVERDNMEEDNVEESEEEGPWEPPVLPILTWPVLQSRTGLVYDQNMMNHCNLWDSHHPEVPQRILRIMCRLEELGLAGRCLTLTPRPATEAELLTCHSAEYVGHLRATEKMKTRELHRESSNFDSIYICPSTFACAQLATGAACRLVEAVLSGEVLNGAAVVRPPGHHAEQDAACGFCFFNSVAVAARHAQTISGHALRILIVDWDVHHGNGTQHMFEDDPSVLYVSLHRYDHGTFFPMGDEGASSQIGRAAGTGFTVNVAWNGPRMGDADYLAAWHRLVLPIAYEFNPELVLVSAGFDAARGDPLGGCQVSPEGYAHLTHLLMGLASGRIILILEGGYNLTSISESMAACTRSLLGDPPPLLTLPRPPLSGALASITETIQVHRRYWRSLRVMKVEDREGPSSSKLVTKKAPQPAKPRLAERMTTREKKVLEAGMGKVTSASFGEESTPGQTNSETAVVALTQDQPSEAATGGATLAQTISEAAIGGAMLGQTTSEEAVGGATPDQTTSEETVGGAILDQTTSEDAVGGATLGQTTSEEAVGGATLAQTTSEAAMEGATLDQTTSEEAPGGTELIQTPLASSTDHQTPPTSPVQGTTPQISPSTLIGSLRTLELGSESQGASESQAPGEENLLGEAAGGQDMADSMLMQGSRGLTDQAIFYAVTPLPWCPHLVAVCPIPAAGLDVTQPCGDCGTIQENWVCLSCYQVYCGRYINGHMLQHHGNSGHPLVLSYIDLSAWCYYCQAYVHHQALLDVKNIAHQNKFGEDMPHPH

[4] = molecular target: T3, Histone deacetylase 8 (Schistosoma mansoni) (UniProt A5H660); assay: Inhibition of Schistosoma mansoni KDAC8 at 30 uM using (FAM)-labeled peptide as substrate after 60 mins by microfluidic assay
T3 sequence (whole entry): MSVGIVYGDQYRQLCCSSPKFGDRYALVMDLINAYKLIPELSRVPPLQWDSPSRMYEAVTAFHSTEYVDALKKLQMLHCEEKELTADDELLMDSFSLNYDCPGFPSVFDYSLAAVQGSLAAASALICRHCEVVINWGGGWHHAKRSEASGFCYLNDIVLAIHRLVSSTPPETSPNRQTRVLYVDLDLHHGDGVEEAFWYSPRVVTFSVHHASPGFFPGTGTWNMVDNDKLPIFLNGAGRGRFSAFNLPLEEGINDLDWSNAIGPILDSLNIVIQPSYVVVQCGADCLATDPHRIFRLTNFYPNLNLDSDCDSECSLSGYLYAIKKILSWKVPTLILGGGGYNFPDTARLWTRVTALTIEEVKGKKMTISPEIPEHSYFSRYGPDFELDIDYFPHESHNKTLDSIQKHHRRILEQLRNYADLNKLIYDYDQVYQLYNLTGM

Histone deacetylase 1 = Histone deacetylase 1 (Homo sapiens, UniProt Q13547); assay: Inhibition of full length human C-terminal FLAG/His-tagged KDAC1 expressed in baculovirus expression system at 30 uM using substrate A after 60 mins by microfluidic assay relative to control; conditions: 1 h, 30 µM
Histone deacetylase 1, sequence (Q13547 whole entry): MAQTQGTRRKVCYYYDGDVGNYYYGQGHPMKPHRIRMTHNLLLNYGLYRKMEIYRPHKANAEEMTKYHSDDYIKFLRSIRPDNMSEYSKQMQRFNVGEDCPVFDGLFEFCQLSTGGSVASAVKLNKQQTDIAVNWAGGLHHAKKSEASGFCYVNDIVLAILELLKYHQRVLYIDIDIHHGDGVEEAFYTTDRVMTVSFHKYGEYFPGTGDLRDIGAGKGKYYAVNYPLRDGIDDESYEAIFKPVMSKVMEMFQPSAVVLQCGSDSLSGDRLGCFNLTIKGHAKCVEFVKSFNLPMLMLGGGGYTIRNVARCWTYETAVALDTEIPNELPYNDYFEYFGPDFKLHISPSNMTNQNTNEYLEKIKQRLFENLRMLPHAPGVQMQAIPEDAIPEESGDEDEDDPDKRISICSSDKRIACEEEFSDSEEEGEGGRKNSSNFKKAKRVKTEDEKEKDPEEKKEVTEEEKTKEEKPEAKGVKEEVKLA

[5] = molecular target: Histone deacetylase 3/Nuclear receptor corepressor 2 (HDAC3/NCoR2) (Homo sapiens, UniProt O15379+Q9Y618); assay: as §1; conditions: 1 h, 30 µM
Histone deacetylase 3/Nuclear receptor corepressor 2 (HDAC3/NCoR2), sequence (O15379 whole entry): as the sequence (O15379 whole entry, the tested form may be a part) above
Histone deacetylase 3/Nuclear receptor corepressor 2 (HDAC3/NCoR2), sequence (Q9Y618 whole entry): as the sequence (Q9Y618 whole entry, further chain, the tested form may be a part) above

Histone deacetylase 8 [6] = molecular target: T4, Histone deacetylase 8 (Schistosoma mansoni, UniProt A5H660); assay: Inhibition of Schistosoma mansoni KDAC8 using (FAM)-labeled peptide as substrate after 60 mins by microfluidic assay; conditions: read-out: IC50
T4 sequence (A5H660 whole entry): T3 sequence (whole entry)

SMILES | inhibition (INH) (Histone deacetylase 8 [1]) | inhibition at 1 h, 30 µM [2] | inhibition (INH) [3] | inhibition [4] | inhibition (INH) (Histone deacetylase 1) | inhibition (INH) [5] | IC50 (Histone deacetylase 8 [6])
COC(=O)C(=Cc1ccccc1[N+](=O)[O-])C(=O)OC | Not Active | 3% | Not Active | 3% | Not Active |  | 
C=CCN=C(S)Nc1cccc([N+](=O)[O-])c1 | Not Active | 3% | Not Active | 2% | Not Active |  | 
O=C(OCC(O)COC(=O)c1cccnc1)c1cccnc1 | Not Active |  | Not Active | inactive | Not Active | Not Active | 
CC(C)NCC1CCc2cc(CO)c([N+](=O)[O-])cc2N1 (stereo not drawn) [OXAMNIQUINE] | Not Active |  | Not Active | inactive | Not Active | Not Active | 
O=C(O)c1ccccc1C(=O)Nc1ccccc1[N+](=O)[O-] | Not Active |  | Not Active | 6% | Not Active | Not Active | 
Cc1ccc(Nc2nnc(S)s2)cc1F | Not Active | 2% | Not Active | 8% | Not Active |  | 
NS(=O)(=O)c1ccc(Nc2ccccc2)c([N+](=O)[O-])c1 | Not Active | 1% | Not Active | 12% | Not Active |  | 
Cc1cc(-n2cnc3c(O)ncnc32)ccc1N | Not Active |  | Not Active | 1% | Not Active | Not Active | 
Cc1cc(NC(=O)Nc2cc(F)ccc2F)no1 | Not Active |  | Not Active | inactive | Not Active | Not Active | 
CCOP(=O)(OCC)/C(C#N)=C/c1ccc([N+](=O)[O-])cc1 | Not Active |  | Not Active | 2% | Not Active | Not Active | 
CC(C)(C)OC[C@@H]1N=C(c2ccccc2)c2ccccc2N(CCCCC(=O)O)C1=O |  |  |  | 0% |  |  | > 30 µM
CC(=O)OCCn1c([N+](=O)[O-])cnc1/C=[N+](\[O-])C1CCCCC1 | Not Active |  | Not Active | 12% | Not Active | Not Active | 
O=C1Nc2ccccc2C(c2ccccc2)=N[C@H]1Cc1cn(C(c2ccccc2)(c2ccccc2)c2ccccc2)cn1 |  |  |  | 9.68% |  |  | > 30 µM
COC(=O)CCCCN1C(=O)[C@@H](CSC(C)(C)C)N=C(c2ccccc2)c2ccccc21 |  |  |  | 0% |  |  | > 30 µM
COC(=O)CCCCN1C(=O)[C@H](Cc2cc3ccccc3n2C(=O)OC(C)(C)C)N=C(c2ccccc2)c2ccccc21 |  |  |  | 0% |  |  | > 30 µM
Clc1ccc(Nc2nnc(-c3ccc4c(c3)OCO4)o2)cc1 | Not Active |  | Not Active | 10% | Not Active | Not Active | 
COC(=O)CCCCN1C(=O)[C@H](CC(C)C)N=C(c2ccccc2)c2ccccc21 |  |  |  | 0% |  |  | > 30 µM

SMILES | inhibition (INH) (Histone deacetylase 8 [1]) | inhibition at 1 h, 30 µM [2] | inhibition (INH) [3] | inhibition [4] | inhibition (INH) (Histone deacetylase 1) | inhibition (INH) [5] | IC50 (Histone deacetylase 8 [6])
CC(C)C[C@@H]1N=C(c2ccccc2)c2ccccc2N(CCCCC(=O)NO)C1=O |  |  |  | 23.1% |  |  | > 30 µM
COC(=O)CCCCN1C(=O)[C@H](CC(=O)NC(c2ccccc2)(c2ccccc2)c2ccccc2)N=C(c2ccccc2)c2ccccc21 |  |  |  | 2.19% |  |  | > 30 µM
Nc1ccccc1Sc1cc(Cl)nnc1Cl | Not Active |  | Not Active | inactive | Not Active | Not Active | 
O=C(O)CCCCN1C(=O)[C@H](CC(=O)NC(c2ccccc2)(c2ccccc2)c2ccccc2)N=C(c2ccccc2)c2ccccc21 |  |  |  | 0% |  |  | > 30 µM
CC(C)(C)OC(=O)CC[C@@H]1N=C(c2ccccc2)c2ccccc2N(CCCCC(=O)O)C1=O |  |  |  | 0% |  |  | > 30 µM
O=C(CCCCN1C(=O)[C@H](CCC(=O)NC(c2ccccc2)(c2ccccc2)c2ccccc2)N=C(c2ccccc2)c2ccccc21)NO |  |  |  | 32.1% |  |  | > 30 µM
O=C(CCCCN1C(=O)[C@H](Cc2cnc[nH]2)N=C(c2ccccc2)c2ccccc21)NO |  |  |  | 4.11% |  |  | > 30 µM
NC(=O)c1ccccc1OCC(=O)Nc1ccc(Cl)c(Cl)c1 | Not Active | 6% | Not Active | 2% | Not Active |  | 
COC(=O)CCCCN1C(=O)CN=C(c2ccccc2)c2ccccc21 |  |  |  | 0% |  |  | > 30 µM
C[C@@H]1N=C(c2ccccc2)c2ccccc2NC1=O |  |  |  | 0% |  |  | > 30 µM
CC(C)(C)OC(=O)C[C@@H]1N=C(c2ccccc2)c2ccccc2N(CCCCC(=O)O)C1=O |  |  |  | 0% |  |  | > 30 µM
O=C(O)CC[C@H]1N=C(c2ccccc2)c2ccccc2NC1=O |  |  |  | 0% |  |  | > 30 µM
CSCC[C@@H]1N=C(c2ccccc2)c2ccccc2N(CCCCC(=O)NO)C1=O |  |  |  | 19.3% |  |  | > 30 µM
O=C(O)CCCCN1C(=O)CN=C(c2ccccc2)c2ccccc21 |  |  |  | 0% |  |  | > 30 µM
O=C(CCCNC(=O)C[C@@H]1N=C(c2ccccc2)c2ccccc2NC1=O)NO |  |  |  | 70.3% |  |  | 12.8 µM
Cc1c(C)c(S(=O)(=O)NC(=N)NCCC[C@@H]2N=C(c3ccccc3)c3ccccc3N(CCCCC(=O)NO)C2=O)c(C)c2c1OC(C)(C)C2 |  |  |  | 0% |  |  | > 30 µM
CCOC(=O)C1=C(N)N=C(N)C1=Nc1ccc(OC)cc1 | Not Active | 7% | Not Active | inactive | Not Active |  | 
